Source: the supplement of paper PMC10307832

Experiments:
Assay in all cases: relative viability (nuclei count vs DMSO), 5 days (fraction); higher = more cells survive
NCI-H1666 = tested on: NCI-H1666
Procedure, shortened: (§1)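 Relative viability divides the nuclei count in treated wells by that in vehicle wells. Lung cancer cell lines were seeded in 1536-well plates, dosed by pin tool the next day, and fixed and stained after 5 days in one step with final 0.05% Triton X-100, 1% formaldehyde and 1 ug/ml Hoechst. Dosing was a single drug or a fixed anchor-drug dose plus five library-drug doses (not always all listed) in √10 steps, and values are medians of duplicate plates imaged at 4×.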

HCC-15 = tested on: HCC-15
Procedure, shortened: as §1

NCI-H1993 = tested on: NCI-H1993
Procedure, shortened: as §1

NCI-H1563 = tested on: NCI-H1563
Procedure, shortened: as §1

PC-3 [JPC-3] = tested on: PC-3 [JPC-3]
Procedure, shortened: as §1

NCI-H661 = tested on: NCI-H661
Procedure, shortened: as §1

NCI-H520 = tested on: NCI-H520
Procedure, shortened: as §1

PC-14 = tested on: PC-14
Procedure, shortened: as §1

SK-LU-1 = tested on: SK-LU-1
Procedure, shortened: as §1

NCI-H1734 = tested on: NCI-H1734
Procedure, shortened: as §1

NCI-H2228 = tested on: NCI-H2228
Procedure, shortened: as §1

H3255 = tested on: H3255
Procedure, shortened: as §1

HARA = tested on: HARA
Procedure, shortened: as §1

NCI-H3122 = tested on: NCI-H3122
Procedure, shortened: as §1

NCI-H1975 = tested on: NCI-H1975
Procedure, shortened: as §1

NCI-H838 = tested on: NCI-H838
Procedure, shortened: as §1

CAL-12T = tested on: CAL-12T
Procedure, shortened: as §1

LC-2-ad = tested on: LC-2-ad
Procedure, shortened: as §1

NCI-H1944 = tested on: NCI-H1944
Procedure, shortened: as §1

HCC-366 = tested on: HCC-366
Procedure, shortened: as §1

NCI-H647 = tested on: NCI-H647
Procedure, shortened: as §1

LU99A = tested on: LU99A
Procedure, shortened: as §1

NCI-H1395 = tested on: NCI-H1395
Procedure, shortened: as §1

COR-L 105 = tested on: COR-L 105
Procedure, shortened: as §1

For CCCCCCCCCCCC1=C(O)C(=O)C=C(O)C1=O [Embelin] + C[C@]1(O)C[C@@H](c2nc(-c3ccc4ccc(-c5ccccc5)nc4c3)c3c(N)nccn32)C1 [Linsitinib] (partner 1 µM), the relative viability (NCI-H1666; first compound 0.08 µM) was 0.898, the relative viability (NCI-H1666; first compound 0.8 µM) was 0.995 and the relative viability (NCI-H1666; first compound 2.53 µM) was 0.83. The relative viability (NCI-H1666; first compound 8 µM) was 0.97, the relative viability (HCC-15; first compound 0.08 µM) was 0.922 and the relative viability (HCC-15; first compound 0.8 µM) was 0.895. The relative viability (HCC-15; first compound 2.53 µM) was 0.996, the relative viability (HCC-15; first compound 8 µM) was 0.905 and the relative viability (NCI-H1993; first compound 0.08 µM) was 0.734. It also gave a relative viability (NCI-H1993; first compound 0.8 µM) of 0.807, a relative viability (NCI-H1993; first compound 2.53 µM) of 0.764 and a relative viability (NCI-H1993; first compound 8 µM) of 0.771. For the same compound, the relative viability (NCI-H1563; first compound 0.08 µM) was 1.14, the relative viability (NCI-H1563; first compound 0.8 µM) was 1.18 and the relative viability (NCI-H1563; first compound 2.53 µM) was 1.16. For the same compound, the relative viability (NCI-H1563; first compound 8 µM) was 1.16, the relative viability (PC-3 [JPC-3]; first compound 0.08 µM) was 0.972 and the relative viability (PC-3 [JPC-3]; first compound 0.8 µM) was 0.967. The relative viability (PC-3 [JPC-3]; first compound 2.53 µM) was 0.947, the relative viability (PC-3 [JPC-3]; first compound 8 µM) was 0.983 and the relative viability (NCI-H661; first compound 0.08 µM) was 0.635. The relative viability (NCI-H661; first compound 0.8 µM) was 0.717, the relative viability (NCI-H661; first compound 2.53 µM) was 0.546 and the relative viability (NCI-H661; first compound 8 µM) was 0.623. It also gave a relative viability (NCI-H520; first compound 0.08 µM) of 1, a relative viability (NCI-H520; first compound 0.8 µM) of 0.849 and a relative viability (NCI-H520; first compound 2.53 µM) of 0.869. For the same compound, the relative viability (NCI-H520; first compound 8 µM) was 1.03, the relative viability (PC-14; first compound 0.08 µM) was 0.921 and the relative viability (PC-14; first compound 0.8 µM) was 1. The relative viability (PC-14; first compound 2.53 µM) was 1.06, the relative viability (PC-14; first compound 8 µM) was 0.972 and the relative viability (SK-LU-1; first compound 0.08 µM) was 1.17. For the same compound, the relative viability (SK-LU-1; first compound 0.8 µM) was 1.28, the relative viability (SK-LU-1; first compound 2.53 µM) was 1.1 and the relative viability (SK-LU-1; first compound 8 µM) was 0.993. For the same compound, the relative viability (NCI-H1734; first compound 0.08 µM) was 0.832, the relative viability (NCI-H1734; first compound 0.8 µM) was 1.05 and the relative viability (NCI-H1734; first compound 2.53 µM) was 0.927. It also gave a relative viability (NCI-H1734; first compound 8 µM) of 0.876, a relative viability (NCI-H2228; first compound 0.08 µM) of 0.636 and a relative viability (NCI-H2228; first compound 0.8 µM) of 0.781. The relative viability (NCI-H2228; first compound 2.53 µM) was 1.09, the relative viability (NCI-H2228; first compound 8 µM) was 0.59 and the relative viability (H3255; first compound 0.08 µM) was 1. It also gave a relative viability (H3255; first compound 0.8 µM) of 1.23, a relative viability (H3255; first compound 2.53 µM) of 0.931 and a relative viability (H3255; first compound 8 µM) of 0.922. For the same compound, the relative viability (HARA; first compound 0.08 µM) was 0.972, the relative viability (HARA; first compound 0.8 µM) was 0.914 and the relative viability (HARA; first compound 2.53 µM) was 0.996. For the same compound, the relative viability (HARA; first compound 8 µM) was 1.16, the relative viability (NCI-H3122; first compound 0.08 µM) was 1.01 and the relative viability (NCI-H3122; first compound 0.8 µM) was 0.946. The relative viability (NCI-H3122; first compound 2.53 µM) was 1.01, the relative viability (NCI-H3122; first compound 8 µM) was 1.12 and the relative viability (NCI-H1975; first compound 0.08 µM) was 0.976. The relative viability (NCI-H1975; first compound 0.8 µM) was 0.994, the relative viability (NCI-H1975; first compound 2.53 µM) was 1.04 and the relative viability (NCI-H1975; first compound 8 µM) was 0.973. For the same compound, the relative viability (NCI-H838; first compound 0.08 µM) was 1.06, the relative viability (NCI-H838; first compound 0.8 µM) was 1.13 and the relative viability (NCI-H838; first compound 2.53 µM) was 1.03. It also gave a relative viability (NCI-H838; first compound 8 µM) of 1.07, a relative viability (CAL-12T; first compound 0.08 µM) of 0.783 and a relative viability (CAL-12T; first compound 0.8 µM) of 0.915. For the same compound, the relative viability (CAL-12T; first compound 2.53 µM) was 0.749, the relative viability (CAL-12T; first compound 8 µM) was 0.831 and the relative viability (LC-2-ad; first compound 0.08 µM) was 0.822. It also gave a relative viability (LC-2-ad; first compound 0.8 µM) of 0.891, a relative viability (LC-2-ad; first compound 2.53 µM) of 0.526 and a relative viability (LC-2-ad; first compound 8 µM) of 0.913. It also gave a relative viability (NCI-H1944; first compound 0.08 µM) of 1.15, a relative viability (NCI-H1944; first compound 0.8 µM) of 1.39 and a relative viability (NCI-H1944; first compound 2.53 µM) of 1.17. It also gave a relative viability (NCI-H1944; first compound 8 µM) of 1.12, a relative viability (HCC-366; first compound 0.08 µM) of 0.697 and a relative viability (HCC-366; first compound 0.8 µM) of 0.726. It also gave a relative viability (HCC-366; first compound 2.53 µM) of 0.846, a relative viability (HCC-366; first compound 8 µM) of 0.49 and a relative viability (NCI-H647; first compound 0.08 µM) of 1.31. The relative viability (NCI-H647; first compound 0.8 µM) was 1.27, the relative viability (NCI-H647; first compound 2.53 µM) was 1.32 and the relative viability (NCI-H647; first compound 8 µM) was 1.28. For the same compound, the relative viability (LU99A; first compound 0.08 µM) was 0.537, the relative viability (LU99A; first compound 0.8 µM) was 0.618 and the relative viability (LU99A; first compound 2.53 µM) was 0.552. It also gave a relative viability (LU99A; first compound 8 µM) of 0.472, a relative viability (NCI-H1395; first compound 0.08 µM) of 1.22 and a relative viability (NCI-H1395; first compound 0.8 µM) of 1.38. The relative viability (NCI-H1395; first compound 2.53 µM) was 0.99, the relative viability (NCI-H1395; first compound 8 µM) was 0.873 and the relative viability (COR-L 105; first compound 0.08 µM) was 1.02. The relative viability (COR-L 105; first compound 0.8 µM) was 1.33, the relative viability (COR-L 105; first compound 2.53 µM) was 0.88 and the relative viability (COR-L 105; first compound 8 µM) was 0.874.
